# Test results taken from ChEMBL document CHEMBL4732213, “Discovery of novel ceramide analogs with favorable pharmacokinetic properties and combination with AKT inhibitor against colon cancer” (Eur J Med Chem, 2021).
# Active and inactive are the calls of the source. The calls are words filed in the database; no cut-off is given here.
# Columns and labels:
# [1] = tested on: COLO 205; assay: Antiproliferative activity against human COLO 205 cells measured after 72 hrs by sulforhodamine B assay; format: functional, cell-based; settings: COLO 205, 72 h
# [2] = tested on: COLO-678; assay: Antiproliferative activity against human COLO 678 cells measured after 72 hrs by sulforhodamine B assay; format: functional, cell-based; settings: COLO-678, 72 h
# [3] = tested on: HCT-8; assay: Antiproliferative activity against human HCT8 cells measured after 72 hrs by sulforhodamine B assay; format: functional, cell-based; settings: HCT-8, 72 h
# [4] = tested on: HCT-116; assay: Antiproliferative activity against human HCT116 cells measured after 72 hrs by sulforhodamine B assay; format: functional, cell-based; settings: HCT-116, 72 h
# [5] = tested on: WI-38; assay: Antiproliferative activity against human WI-38 cells measured after 72 hrs by sulforhodamine B assay; format: cell-based; settings: WI-38, 72 h
# [6] = tested on: T84; assay: Additive antiproliferative activity against human T84 cells assessed as combination index at 5 uM after 72 hrs in presence of 2.5 uM AKT inhibitor MK2206 by Chou-Talalay method; format: functional
# [7] = tested on: SW480; assay: Synergistic antiproliferative activity against human SW480 cells assessed as combination index at 20 uM after 72 hrs in presence of 10 uM AKT inhibitor MK2206 by Chou-Talalay method; format: functional
# [8] = tested on: HT-29; assay: Induction of ROS generation in human HT29 cells at 20 uM after 16 hrs by flow cytometric analysis; format: functional, cell-based
# [9] = tested on: HT-29; assay: Induction of apoptosis in human HT29 cells assessed as increase in PARP cleavage at 20 uM after 48 hrs in presence of 10 uM AKT inhibitor MK2206 by Western blot analysis; format: functional, cell-based
# [10] = tested on: HT-29; assay: Induction of apoptosis in human HT29 cells assessed as increase in caspase-3 cleavage at 20 uM after 48 hrs in presence of 10 uM AKT inhibitor MK2206 by Western blot analysis; format: functional, cell-based
# [11] = tested on: HT-29; assay: Induction of apoptosis in human HT29 cells assessed as increase in caspase-3 activity at 20 uM after 24 hrs in presence of 10 uM AKT inhibitor MK2206 by Western blot analysis; format: functional, cell-based
# [12] = tested on: HT-29; assay: Induction of cell cycle arrest in human HT29 cells assessed as accumulation at G0/G1 phase at 20 uM after 24 hrs in presence of 10 uM AKT inhibitor MK2206 by PI staining based flow cytometry analysis; format: functional
# [13] = tested on: HT-29; assay: Upregulation of p21 protein expression in human HT29 cells at 20 uM incubated for 24 hrs in presence of 10 uM AKT inhibitor MK2206 by Western blotting analysis; format: functional, cell-based
# [14] = tested on: HT-29; assay: Down regulation of cyclin A expression in human HT29 cells at 20 uM incubated for 24 hrs in presence of 10 uM AKT inhibitor MK2206 by Western blotting analysis; format: functional, cell-based
# [15] = tested on: HT-29; assay: Down regulation of CDK2 expression in human HT29 cells at 20 uM incubated for 24 hrs in presence of 10 uM AKT inhibitor MK2206 by Western blotting analysis; format: functional, cell-based
# [16] = tested on: HT-29; assay: Down regulation of CDK6 expression in human HT29 cells at 20 uM incubated for 24 hrs in presence of 10 uM AKT inhibitor MK2206 by Western blotting analysis; format: functional, cell-based
# [17] = AUC(0 to t) in BALB/c mouse at 50 mg/kg, ip; format: ADME, organism-based; parameters: dose 50 mg/kg; settings: in vivo
# [18] = Half life in BALB/c mouse at 50 mg/kg, ip; format: ADME, organism-based; settings: in vivo
# [19] = tested on: HT-29; assay: Antitumor activity against human HT-29 cells xenografted in BALB/c nude mouse assessed as reduction in tumor weight at 100 mg/kg/day, ip measured every 3 days in presence of 50 mg/kg AKT inhibitor MK2206 by electronic caliper method; format: functional, organism-based; settings: time 3.0 day
# [20] = Toxicity in BALB/c nude mouse xenografted with human HT-29 cells assessed as effect on body weight at 100 mg/kg/day, ip measured every 3 day in presence of 50 mg/kg AKT inhibitor MK2206 by electronic caliper method; format: organism-based; settings: in vivo, 72 h
smiles,measurement,setting,value
CCCCCCCOc1ccc(CCC(CO)(CO)NC(C)=O)c2ccccc12,IC50,[1],18.3 µM
same,IC50,[2],20.7 µM
same,IC50,[3],21.8 µM
same,IC50,[4],25.8 µM
same,IC50,[5],50.9 µM
same,CI,[6],1.1
same,CI,[7],0.62
same,Activity,[8],inactive
same,Activity,[9],Active
same,Activity,[10],Active
same,Activity,[11],Active
same,Activity,[12],Active
same,Activity,[13],Active
same,Activity,[14],Active
same,Activity,[15],Active
same,Activity,[16],Active
same,AUC(0-t),[17],15600 ng·h/mL
same,half-life,[18],3.3 h
same,Activity,[19],Active
same,Activity,[20],Non-Toxic
